Results published in patent publication US10772326B2 (priority 2014, dated 2020).
Read-outs that look alike come from different tables or passages of the source.

Experiments:
[1] = system: E. coli Stratagene strain “Solopack”; experiment: Disc test of essential oils on E. coli growth on LB agar; type: cell-based; settings: 20 μl undiluted on 6 mm disc, 24 hrs
Protocol: The essential oils cinnamadehyde (Aldrich, W228605; ≥98% purity), carvacrol (Aldrich, W224502; ≥98% purity) and geraniol (Aldrich, 163333; 98% purity) were purchased Sigma-Aldrich (St. Louis, Mo.). A single colony of E. coli Stratagene strain “Solopack” was inoculated in 5 ml of Luria Broth (LB) liquid medium with shaking at 37° C. overnight. Two hundred μl of the E. coli overnight cultures were placed on an LB agar plate, and spread evenly with glass beads. The bacterial culture was allowed to absorb into the LB medium. Within 30 min after absorption, 20 μl drops of the three essential oils (cinnamaldehyde, carvacrol or geraniol) were separately placed without dilution on 6 mm discs (Whatman, Cat No. 2017-006; GE healthcare Life Science) and the treated disks were placed on top of the plates with E. coli. The plates were then incubated for 24 hrs. […] Experiments were repeated, with the same results.

[2] = system: L. crescens strain BT-1 (Lcr); type: cell-based, Liberibacter crescens; settings: 5 days; for inhibition of the growth of Lcr: 20 μl on 6 mm disc
[3] = system: Swingle rootstocks and sweet orange; experiment: Phytotoxicity of foliar spray or leaf painting on citrus; type: in vivo; settings: spray to run-off or leaf painting
From the text: To test the phytoxicity of cinnamaldehyde or carvacrol in 70% ethanol, and 70% ethanol alone on citrus plants, we applied 1% (w/v) and 10% (w/v) cinnamaldehyde or carvacrol (each dissolved in 70% ethanol) on Swingle rootstocks (˜6 inches to 1 foot tall) by spraying to the point of run-off of the spray and also sweet orange (˜3 foot tall) by painting one or both sides of a portion of the leaf surface. We also applied 70% ethanol as control in these two methods.

Swingle rootstocks = experiment: Phytotoxicity of soil drench on potted citrus; type: in vivo; settings: drench to run-off
From the text: To further test the phytoxicity of cinnamaldehyde or carvacrol in 70% ethanol, and 70% ethanol alone on citrus plants, we applied 1% and 10% cinnamaldehyde or carvacrol (each dissolved in 70% ethanol) on Swingle rootstocks (˜6 inches to 1 foot tall) by adding sufficient liquid to soil of potted citrus to the point of run-off of the drench. We also applied 70% ethanol as control in these two methods.

Las [4] = type: in vivo, Candidatus Liberibacter asiaticus; settings: 1% (w/v) in 70% ethanol, foliar spray to run-off; 1-2 weeks later and for several months; positive = Ct ≤ 35
Las [5] = settings: spray to run-off
Las [6] = settings: 1.5% (w/v) in 100% DMSO
[7] = 1% in 70% ethanol (carvacrol: 8 mg/ml (1%))

| SMILES | inhibition of the growth of E. coli [1] | inhibition of the growth of Lcr ([2]; 2 mg/ml to 0.125 mg/ml in 70% ethanol) | relative inhibition of the growth of E. coli (ranking) [1] | inhibition of the growth of Lcr ([2]; 2 mg/ml in 70% ethanol) | level down to which inhibitory to Lcr ([2]; two-fold serial dilutions in 70% ethanol, disc test) | phytotoxicity, foliar ([3]; 1% (w/v) in 70% ethanol) | phytotoxicity, foliar ([3]; 10% w/v in 70% ethanol) | phytotoxicity, soil drench (Swingle rootstocks; [7]) | phytotoxicity, soil drench (Swingle rootstocks; 10% w/v in 70% ethanol) | Las qPCR tests after treatment (Las [4]) | PCR tests for presence of Las (Las [5]; 0.3% in 50% DMSO) | effect on the trees (defoliation) (Las [5]; 0.3% in 50% DMSO) | weekly qPCR tests for Las for the next nine months (Las [5]; 1.5% in 50% DMSO) | effect on the trees (defoliation) (Las [5]; 1.5% in 50% DMSO, 6-7 days later) | PCR tests for presence of Las in new shoots (Las [5]; 1.5% in 50% DMSO, about 3 weeks after defoliation) | effect on the trees (defoliation) (Las [6]; 2 x 20 ml trunk injection, 6-7 days later) | PCR tests for presence of Las in new shoots (Las [6]; trunk injection) | weekly PCR tests for Las for the next 9 months (Las [6]; trunk injection) |
| --- | --- | --- | --- | --- | --- | --- | --- | --- | --- | --- | --- | --- | --- | --- | --- | --- | --- | --- |
| CC(C)=CCC/C(C)=C/CO [geraniol, reference compound] | inhibitory | not inhibitory |  |  |  |  |  |  |  |  |  |  |  |  |  |  |  |  |
| O=C/C=C/c1ccccc1 [cinnamaldehyde] | inhibitory |  | more inhibitory than geraniol | surprisingly strong inhibition | 1 mg/mL | not at all phytotoxic | moderately phytotoxic | not at all phytotoxic | moderately phytotoxic | qPCR positive | remained infected | appeared unaffected | remained completely negative | completely defoliated | completely Las negative | completely defoliated | completely negative | remained completely PCR negative |
| Cc1ccc(C(C)C)cc1O [carvacrol, reference compound] | inhibitory |  | more inhibitory than cinnamaldehyde | only slight inhibition |  | highly phytotoxic |  | highly phytotoxic |  |  |  |  |  |  |  |  |  |  |
